Experimental findings from patent US12516095B2, “Peptide hormone analogues” (IP2IPO INNOVATIONS LIMITED, priority 2019, dated 2026) are described below.

Starred links: 1 amine or outer side, 2 acyl side, 3 side chain; linkers in the order of their positions; H or OH if unused. Non-standard residues stand in square brackets, D forms with d. Residues, ends and D or L forms follow the SMILES beside them. Groups on a side chain read outwards from the residue. *: point of attachment. C20 diacid = O=C(O)CCCCCCCCCCCCCCCCCCC(=O)*; C18 diacid = O=C(O)CCCCCCCCCCCCCCCCC(=O)*; γGlu = O=C(O)[C@H](CCC(=O)[*:2])N[*:1]; Aib = CC(C)(N)C(=O)O

This data set is described as follows: PK measurements for half life assessment in pigs. Format: in vivo, pig. The settings on record: male, large white, pig, plasma, sc, single subcutaneous injection, time from tmax to half of Cmax, typically mean of four animals. How it is done:
Male large white pigs receive a single subcutaneous injection of the test compound at the start of study (0 hours). Repeated blood samples were taken from the pig over the proceeding 168 hours and plasma separated and stored at −20 to −80° C. Plasma concentration of the test compound was quantified using a radioimmunoassay or mass spectrum analysis. Time taken from tmax to half of Cmax was calculated and represents the half-life (t½) of the compound. Typically, the presented t½ is the mean of four separate animals.
The term half-life denotes the time in which the quantity being followed falls by half. Read a high half-life as slow loss. As to `CC[C@H](C)[C@H](NC(=O)[C@H](Cc1ccccc1)NC(=O)[C@H](CCC(=O)O)NC(=O)[C@H](CCC(N)=O)NC(=O)[C@H](C)NC(=O)[C@H](CCCNC(=N)N)NC(=O)[C@H](CCCCN)NC(=O)[C@H](C)NC(=O)[C@H](CC(=O)O)NC(=O)[C@H](CC(C)C)NC(=O)[C@H](Cc1ccc(O)cc1)NC(=O)[C@H](CCCCN)NC(=O)[C@H](CO)NC(=O)[C@H](Cc1ccc(O)cc1)NC(=O)[C@H](CC(=O)O)NC(=O)[C@H](CO)NC(=O)[C@@H](NC(=O)[C@H](Cc1ccccc1)NC(=O)[C@@H](NC(=O)CNC(=O)[C@H](Cc1c[nH]cn1)NC(=O)C(C)(C)NC(=O)[C@@H](N)Cc1c[nH]cn1)[C@@H](C)O)[C@@H](C)O)C(=O)N[C@@H](CCC(=O)O)C(=O)N[C@@H](Cc1c[nH]c2ccccc12)C(=O)N[C@@H](CC(C)C)C(=O)N[C@@H](CC(C)C)C(=O)N[C@@H](CCC(N)=O)C(=O)N[C@@H](CO)C(=O)N[C@@H](Cc1c[nH]cn1)C(=O)N[C@@H](Cc1c[nH]cn1)C(=O)N[C@@H](CCC(N)=O)C(=O)N[C@@H](CCC(N)=O)C(=O)N[C@@H](Cc1c[nH]cn1)C(=O)N[C@@H](CCC(=O)O)C(=O)N[C@@H](CO)C(=O)N1CCC[C@H]1C(=O)N1CCC[C@H]1C(=O)N1CCC[C@H]1C(=O)N[C@@H](CCCCNC(=O)[C@H](Cc1c[nH]cn1)NC(=O)[C@H](CC(N)=O)NC(=O)CC[C@H](NC(=O)CCCCCCCCCCCCCCCCC(=O)O)C(=O)O)C(=O)O` [Example 649] (H-H[Aib]HGTFTSDYSKYLDAKRAQEFIEWLLQSHHQQHESPPPK([His-Asn-γGlu-C18 diacid])-OH), the half-life was 84 h.

On to `CC[C@H](C)[C@H](NC(=O)[C@H](Cc1ccccc1)NC(=O)[C@H](CCC(=O)O)NC(=O)[C@H](CCC(N)=O)NC(=O)[C@H](C)NC(=O)[C@H](CCCNC(=N)N)NC(=O)[C@H](CCCCN)NC(=O)[C@H](C)NC(=O)[C@H](CC(=O)O)NC(=O)[C@H](CC(C)C)NC(=O)[C@H](Cc1ccc(O)cc1)NC(=O)[C@H](CCCCN)NC(=O)[C@H](CO)NC(=O)[C@H](Cc1ccc(O)cc1)NC(=O)[C@H](CC(=O)O)NC(=O)[C@H](CO)NC(=O)[C@@H](NC(=O)[C@H](Cc1ccccc1)NC(=O)[C@@H](NC(=O)CNC(=O)[C@H](Cc1c[nH]cn1)NC(=O)C(C)(C)NC(=O)[C@@H](N)Cc1c[nH]cn1)[C@@H](C)O)[C@@H](C)O)C(=O)N[C@@H](CCC(=O)O)C(=O)N[C@@H](Cc1c[nH]c2ccccc12)C(=O)N[C@@H](CC(C)C)C(=O)N[C@@H](CC(C)C)C(=O)N[C@@H](CCC(N)=O)C(=O)N[C@@H](CO)C(=O)N[C@@H](Cc1c[nH]cn1)C(=O)N[C@@H](Cc1c[nH]cn1)C(=O)N[C@@H](CCC(N)=O)C(=O)N[C@@H](CCC(N)=O)C(=O)N[C@@H](Cc1c[nH]cn1)C(=O)N[C@@H](CCC(=O)O)C(=O)N[C@@H](CO)C(=O)N1CCC[C@H]1C(=O)N1CCC[C@H]1C(=O)N1CCC[C@H]1C(=O)N[C@@H](CCCCNC(=O)[C@H](CC(N)=O)NC(=O)CC[C@H](NC(=O)CCCCCCCCCCCCCCCCCCC(=O)O)C(=O)O)C(=O)O` [Example 549] (H-H[Aib]HGTFTSDYSKYLDAKRAQEFIEWLLQSHHQQHESPPPK([Asn-γGlu-C20 diacid])-OH), for which the half-life is 110 h. As for “H-H[Aib]HGTFTSDYSKYLDAKRAQEFIEWLLQSHHQQHESPPPGK([γGlu-C20 diacid])-OH [Example 646]”, the figure is 42 h.
